Patent US20050058603A1, “Drug delivery system based on polymer nanoshells” (Case Western Reserve University, priority 2003, published 2005)

Tested on: MCF-7 cells
Test: Cytotoxicity study of DOX loaded shells vs free doxorubicin solution and empty shells
Conditions: 5 days
Description: Human breast cancer MCF-7 cells were obtained from ATCC.
Free DOX solution, DOX-loaded shells, and empty shells of different concentrations were used in cell cytotoxicity studies for 5 days.
A cytotoxicity study of DOX loaded shells was carried out in vitro as compared to free doxorubicin solution (FIG. 13).
All samples were incubated in culture media for 5 days.

`COc1cccc2c1C(=O)c1c(O)c3c(c(O)c1C2=O)C[C@@](O)(C(=O)CO)C[C@@H]3O[C@H]1C[C@H](N)[C@H](O)[C@H](C)O1.Cl` [Doxorubicin solution, Doxorubicin] was tested, and the “cytotoxicity compared to free DOX solution” value was “strongest cytotoxicity”.
